# Literature values, collected in paper PMC10182713 (South African Journal of Botany, 2023).
# Test system: multidrug-resistant TB
# Settings: ref Favela-Hernández et al. (2012); cited from earlier work
row,Structure (SMILES),Activity against multidrug-resistant TB in words
1,"COc1cc(O)c2c(=O)c(OC)c(-c3ccc(O)cc3)oc2c1OC [5,4-dihydroxy 3,7,8-trimethoxyflavone]",active
2,"COc1cc(-c2oc3c(OC)c(OC)cc(O)c3c(=O)c2OC)ccc1O [5,4-dihydroxy-3,7,8,3-tetramethoxyflavone]",active
